Reference: ChEMBL document CHEMBL1151491 (Bioorg Med Chem Lett, 1995)

What was measured:
[1] = molecular target: Muscarinic acetylcholine receptor M3 (Rattus norvegicus, UniProt P08483); assay: Inhibition of binding of [3H]N-methylscopolamine to muscarinic receptor (M3) in rat submaxillary gland homogenates
[2] = molecular target: T1, Muscarinic acetylcholine receptor M2 (Rattus norvegicus, UniProt P10980); assay: Inhibition of binding of [3H]N-methylscopolamine to muscarinic receptor (M2) in rat heart homogenates; format: tissue-based
T1 sequence (P10980 whole entry): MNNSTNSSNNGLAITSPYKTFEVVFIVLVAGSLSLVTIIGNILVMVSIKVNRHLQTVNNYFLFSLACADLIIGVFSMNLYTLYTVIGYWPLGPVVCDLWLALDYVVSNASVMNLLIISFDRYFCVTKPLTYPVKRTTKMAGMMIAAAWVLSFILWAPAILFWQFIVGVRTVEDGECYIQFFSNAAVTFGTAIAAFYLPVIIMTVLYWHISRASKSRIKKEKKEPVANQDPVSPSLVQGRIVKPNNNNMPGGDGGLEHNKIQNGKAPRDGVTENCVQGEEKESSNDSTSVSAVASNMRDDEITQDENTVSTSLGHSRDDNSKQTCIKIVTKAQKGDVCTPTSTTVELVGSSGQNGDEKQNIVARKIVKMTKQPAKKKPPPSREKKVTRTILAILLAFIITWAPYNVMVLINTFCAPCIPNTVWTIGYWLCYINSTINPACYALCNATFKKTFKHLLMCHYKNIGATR

[3] = molecular target: T2, Muscarinic acetylcholine receptor M4 (Rattus norvegicus, UniProt P08485); assay: Inhibition of binding of [3H]N-methylscopolamine to Muscarinic acetylcholine receptor M4 in NG 108-15 cell homogenates; format: cell-free
T2 sequence (P08485 whole entry): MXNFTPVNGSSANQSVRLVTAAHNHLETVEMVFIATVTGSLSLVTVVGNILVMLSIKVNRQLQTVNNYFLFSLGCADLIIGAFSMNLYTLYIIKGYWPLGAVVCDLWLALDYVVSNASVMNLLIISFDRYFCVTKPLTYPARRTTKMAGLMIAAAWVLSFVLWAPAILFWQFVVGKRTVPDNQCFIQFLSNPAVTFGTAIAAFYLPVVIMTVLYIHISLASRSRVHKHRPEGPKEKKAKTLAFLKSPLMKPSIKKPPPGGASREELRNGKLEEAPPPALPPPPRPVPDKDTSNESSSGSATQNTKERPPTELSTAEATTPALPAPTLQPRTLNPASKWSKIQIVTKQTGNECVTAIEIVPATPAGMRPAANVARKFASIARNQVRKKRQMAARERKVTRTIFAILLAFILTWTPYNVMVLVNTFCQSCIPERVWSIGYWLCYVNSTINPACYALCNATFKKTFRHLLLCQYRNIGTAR

[4] = molecular target: T3, Muscarinic acetylcholine receptor M1 (Rattus norvegicus, UniProt P08482); assay: Inhibition of binding of [3H]pirenzepine to muscarinic receptor (M1) in rat cortex homogenates
T3 sequence (P08482 whole entry): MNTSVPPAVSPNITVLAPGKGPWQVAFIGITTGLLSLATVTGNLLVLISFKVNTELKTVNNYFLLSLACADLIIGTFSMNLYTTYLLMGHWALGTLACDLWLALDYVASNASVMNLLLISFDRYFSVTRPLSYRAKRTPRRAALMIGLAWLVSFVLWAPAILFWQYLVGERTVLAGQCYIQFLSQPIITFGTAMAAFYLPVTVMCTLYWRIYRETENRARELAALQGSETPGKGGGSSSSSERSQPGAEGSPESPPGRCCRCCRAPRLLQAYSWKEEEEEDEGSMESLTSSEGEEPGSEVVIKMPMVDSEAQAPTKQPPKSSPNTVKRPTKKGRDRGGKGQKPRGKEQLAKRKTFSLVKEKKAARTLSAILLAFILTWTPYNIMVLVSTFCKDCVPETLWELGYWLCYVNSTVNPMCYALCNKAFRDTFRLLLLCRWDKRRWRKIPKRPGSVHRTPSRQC

Chain of Muscarinic acetylcholine receptor M3 (P08483 whole entry): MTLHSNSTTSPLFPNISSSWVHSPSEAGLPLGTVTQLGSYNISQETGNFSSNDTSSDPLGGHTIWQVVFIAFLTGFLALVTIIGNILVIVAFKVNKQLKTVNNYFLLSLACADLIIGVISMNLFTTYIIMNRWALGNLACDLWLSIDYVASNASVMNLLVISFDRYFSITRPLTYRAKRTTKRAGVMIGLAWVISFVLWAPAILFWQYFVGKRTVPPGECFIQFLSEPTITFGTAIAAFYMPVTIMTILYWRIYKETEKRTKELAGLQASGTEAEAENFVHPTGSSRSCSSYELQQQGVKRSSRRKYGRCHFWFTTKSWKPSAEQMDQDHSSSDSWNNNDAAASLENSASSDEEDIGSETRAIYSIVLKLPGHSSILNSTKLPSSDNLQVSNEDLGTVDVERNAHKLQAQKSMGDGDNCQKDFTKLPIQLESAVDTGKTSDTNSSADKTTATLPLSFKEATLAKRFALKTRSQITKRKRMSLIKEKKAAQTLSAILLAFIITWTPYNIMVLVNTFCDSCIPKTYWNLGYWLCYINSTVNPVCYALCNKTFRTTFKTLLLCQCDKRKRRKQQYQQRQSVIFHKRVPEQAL

With `CN(CCCCCCCCN(C)CCCCCCN1CCC(OC(=O)C(c2ccccc2)c2ccccc2)CC1)CCCCCCN1CCC(OC(=O)C(c2ccccc2)c2ccccc2)CC1` the Ki [1] was 2140 nM, the Ki [2] was 182 nM and the Ki [3] was 39.8 nM. For the same compound, the Ki [4] was 75.9 nM.
`CN(CCCCCCCCN(C)CCCCCCN1CCC2(CC1)OC(=O)C(c1ccccc1)(c1ccccc1)O2)CCCCCCN1CCC2(CC1)OC(=O)C(c1ccccc1)(c1ccccc1)O2` [SPIROTRAMINE] gave a Ki [1] of 977 nM, a Ki [2] of 631 nM and a Ki [3] of 537 nM. The Ki [4] was 13.2 nM.
